Measurements as given in patent US20100092443A1, “NOVEL COMBINATIONS OF NITROGENATED HETEROCYCLIC ANTIBACTERIAL COMPOUNDS WITH OTHER ANTIBACTERIAL COMPOUNDS AND THE USE OF SAME AS DRUGS” (priority 2008, published 2010).
≈ marks a conversion by molar mass, not a printed value. Like-named read-outs stand apart in the source and are kept apart here.

Legend:
Assay type in all cases: cell-based
Pseudomonas aeruginosa = experiment: MIC, dilutions in liquid medium, alone and combined with NXL105; details: Pseudomonas aeruginosa
Protocol: (§1) In vitro activity, method of dilutions in liquid medium:
A series of test 96-well microtiter plates are prepared in which the same quantity of sterile nutritive medium is distributed. Increasing quantities of the compound to be studied, namely the antibacterial compound alone and the inventive combination with the compound of formula (I) of example 1, are distributed in each plate in the respective proportions 2:1 and 4:1, and then each plate is inoculated with a bacterial strain of Pseudomonas aeruginosa. After 24 h of incubation in a 37° C. oven, growth inhibition is evaluated by transillumination, which makes it possible to determine the minimum inhibitory concentrations (MICS) expressed in μg/ml.

K. oxytoca = experiment: as above; details: Klebsiella oxytoca, read-out: MIC
E. cloacae = experiment: as above; details: Enterobacter cloacae
Protocol: as §1
(§2) A series of test 96-well microtiter plates are prepared in which the same quantity of sterile nutritive medium is distributed. […] After 24 h of incubation in a 37° C. oven, growth inhibition is evaluated by transillumination, which makes it possible to determine the minimum inhibitory concentrations (MICS) expressed in μg/ml.

K. pneumoniae = experiment: as above
Protocol: as §1, §2

E. coli = experiment: microbe, parasite or virus in culture; details: Escherichia coli
Protocol: as §1, §2

C. freundii = experiment: MIC, dilutions in liquid medium, alone and combined with NXL105; details: Citrobacter freundii

C[C@@H](O)[C@H]1C(=O)N2C(C(=O)O)=C(S[C@@H]3CN[C@H](C(=O)N(C)C)C3)[C@H](C)[C@H]12 [Meropenem]
MIC (Pseudomonas aeruginosa; ATCC27853, P. aeruginosa ATCC 27853): 1 µg/mL | MIC (Pseudomonas aeruginosa; P. aeruginosa 391HG2): > 32 µg/mL | MIC (Pseudomonas aeruginosa; P. aeruginosa 391HG21): > 32 µg/mL | MIC (Pseudomonas aeruginosa; P. aeruginosa 391HG38): 32 µg/mL | MIC (Pseudomonas aeruginosa; P. aeruginosa 391HG39): 0.06 µg/mL | MIC (Pseudomonas aeruginosa; P. aeruginosa 391HG58): 32 µg/mL | MIC (Pseudomonas aeruginosa; P. aeruginosa 391HG118): 8 µg/mL | MIC (Pseudomonas aeruginosa; P. aeruginosa 391HG123): 32 µg/mL | MIC (Pseudomonas aeruginosa; P. aeruginosa 391HG158): 32 µg/mL | MIC (Pseudomonas aeruginosa; P. aeruginosa 391HG271): > 32 µg/mL | MIC (Pseudomonas aeruginosa; P. aeruginosa 391HG329): > 32 µg/mL | MIC (Pseudomonas aeruginosa; P. aeruginosa 391K767): 2 µg/mL | MIC (Pseudomonas aeruginosa; P. aeruginosa 391K1455): 4 µg/mL | MIC (Pseudomonas aeruginosa; P. aeruginosa 391K1523): 2 µg/mL | MIC (Pseudomonas aeruginosa; P. aeruginosa 391K1525): 2 µg/mL | MIC (Pseudomonas aeruginosa; P. aeruginosa 391K1536): 2 µg/mL | MIC (Pseudomonas aeruginosa; P. aeruginosa 391K2376): 2 µg/mL | MIC (Pseudomonas aeruginosa; P. aeruginosa 391K2379): 4 µg/mL | MIC (Pseudomonas aeruginosa; P. aeruginosa 391K2415): 2 µg/mL | MIC (Pseudomonas aeruginosa; P. aeruginosa 391KB9): 4 µg/mL | MIC (Pseudomonas aeruginosa; P. aeruginosa 391KB14): 8 µg/mL | MIC (Pseudomonas aeruginosa; P. aeruginosa 391KB21): 8 µg/mL | MIC (Pseudomonas aeruginosa; P. aeruginosa 391KB33): 4 µg/mL | MIC (Pseudomonas aeruginosa; P. aeruginosa 391KB38): 8 µg/mL | MIC (Pseudomonas aeruginosa; P. aeruginosa 391KB62): > 32 µg/mL | MIC (Pseudomonas aeruginosa; P. aeruginosa 391KB68): 1 µg/mL | MIC (Pseudomonas aeruginosa; P. aeruginosa 391KB90): 16 µg/mL | MIC (Pseudomonas aeruginosa; P. aeruginosa 391KB91): 16 µg/mL | MIC (Pseudomonas aeruginosa; P. aeruginosa 391KB99): 16 µg/mL | MIC (Pseudomonas aeruginosa; P. aeruginosa 391KB103): 8 µg/mL | MIC (Pseudomonas aeruginosa; P. aeruginosa 391KB105): 4 µg/mL | MIC (Pseudomonas aeruginosa; P. aeruginosa 391KB106): 4 µg/mL | MIC (Pseudomonas aeruginosa; P. aeruginosa 391KB107): 32 µg/mL | MIC (Pseudomonas aeruginosa; P. aeruginosa 391KB114): 16 µg/mL | MIC (Pseudomonas aeruginosa; P. aeruginosa 391KB127): 2 µg/mL | MIC (Pseudomonas aeruginosa; P. aeruginosa 391KB135): > 32 µg/mL | MIC (Pseudomonas aeruginosa; P. aeruginosa 391KB136): > 32 µg/mL | MIC (Pseudomonas aeruginosa; P. aeruginosa 391KB137): > 32 µg/mL | MIC (Pseudomonas aeruginosa; P. aeruginosa 391KB138): > 32 µg/mL | MIC (Pseudomonas aeruginosa; P. aeruginosa 391KB139): > 32 µg/mL | MIC (Pseudomonas aeruginosa; P. aeruginosa 391KB140): 16 µg/mL | MIC (Pseudomonas aeruginosa; P. aeruginosa 391KB141): > 32 µg/mL | MIC (Pseudomonas aeruginosa; P. aeruginosa 391KB142): > 32 µg/mL | MIC (Pseudomonas aeruginosa; P. aeruginosa 391KB143): > 32 µg/mL | MIC (Pseudomonas aeruginosa; P. aeruginosa 391KB144): > 32 µg/mL | MIC (Pseudomonas aeruginosa; P. aeruginosa 391QBR2): > 32 µg/mL | MIC (Pseudomonas aeruginosa; P. aeruginosa 391QBR3): 32 µg/mL | MIC (Pseudomonas aeruginosa; P. aeruginosa 391QBR4): 16 µg/mL | MIC (Pseudomonas aeruginosa; P. aeruginosa 391QBR5): 32 µg/mL | MIC (Pseudomonas aeruginosa; P. aeruginosa 391QBR7): 32 µg/mL | MIC (Pseudomonas aeruginosa; P. aeruginosa 391QBR8): 16 µg/mL | MIC (Pseudomonas aeruginosa; P. aeruginosa 391QBR9): 16 µg/mL | MIC (Pseudomonas aeruginosa; P. aeruginosa 391QBR10): 4 µg/mL | MIC (Pseudomonas aeruginosa; P. aeruginosa C3719): > 32 µg/mL | MIC (Pseudomonas aeruginosa; P. aeruginosa PA2192): 8 µg/mL | MIC (K. oxytoca; K. oxytoca 1431, TEM-129): 0.06 µg/mL | MIC (K. oxytoca; K. oxytoca 16944, OXY-2, TEM-1): 0.06 µg/mL | MIC (E. cloacae): 0.125 µg/mL | MIC (E. cloacae; 24 h, E. cloacae 7506, KPC-2 + TEM-1 + KLUC-2, read-out: MIC): 16 µg/mL | MIC (E. cloacae; E. cloacae (no alias), AmpC, read-out: MIC): 0.5 µg/mL | MIC (K. pneumoniae; K. pneumoniae 236, SHV-5 + TEM-10): 0.125 µg/mL | MIC (K. pneumoniae; K. pneumoniae 444, SHV-5 + TEM-2 + PER): 0.125 µg/mL | MIC (K. pneumoniae; K. pneumoniae 1734, FOX-3 + TEM-1): 0.125 µg/mL | MIC (K. pneumoniae; K. pneumoniae 9701, CMY-4 + TEM-1): 0.125 µg/mL | MIC (K. pneumoniae; K. pneumoniae Tunisie clone K1, CTX-M-16 + OXA-1): 0.125 µg/mL | MIC (K. pneumoniae; K. pneumoniae Tunisie clone K4, CTX-M-15 + TEM-1 + OXA-1): 0.125 µg/mL | MIC (K. pneumoniae; Klebsiella pneumoniae): 0.125 µg/mL | MIC (K. pneumoniae; Klebsiella pneumoniae, 24 h, K. pneumoniae 60, SHV-2 + TEM-2 + PER, read-out: MIC): 0.06 µg/mL | MIC (K. pneumoniae; Klebsiella pneumoniae, 24 h, K. pneumoniae 157, SHV-5 + TEM-26, read-out: MIC): ≤ 0.03 µg/mL | MIC (K. pneumoniae; Klebsiella pneumoniae, 24 h, K. pneumoniae 181, SHV-5 + TEM-10, read-out: MIC): 4 µg/mL | MIC (K. pneumoniae; Klebsiella pneumoniae, 24 h, K. pneumoniae 238, SHV-2 + TEM-12 + CTX-M-2, read-out: MIC): ≤ 0.03 µg/mL | MIC (K. pneumoniae; Klebsiella pneumoniae, 24 h, K. pneumoniae 253, SHV-2 + TEM-12 + CTX-M-2, read-out: MIC): 0.06 µg/mL | MIC (K. pneumoniae; Klebsiella pneumoniae, 24 h, K. pneumoniae 427, SHV-1 + TEM-1B + CTX-M-3, read-out: MIC): 0.06 µg/mL | MIC (K. pneumoniae; Klebsiella pneumoniae, 24 h, K. pneumoniae 441, SHV-1 + TEM-2 + PER, read-out: MIC): 0.06 µg/mL | MIC (K. pneumoniae; Klebsiella pneumoniae, 24 h, K. pneumoniae 449, SHV-1 + TEM-2 + PER, read-out: MIC): ≤ 0.03 µg/mL | MIC (K. pneumoniae; Klebsiella pneumoniae, 24 h, K. pneumoniae 465, TEM-1B + CTX-M-2, read-out: MIC): 0.25 µg/mL | MIC (K. pneumoniae; Klebsiella pneumoniae, 24 h, K. pneumoniae KOL, MOX-2 + SHV-5 + TEM-1, read-out: MIC): 0.06 µg/mL | MIC (K. pneumoniae; Klebsiella pneumoniae, 24 h, K. pneumoniae Patient 1BHR, VIM-4 + CTX-M-15 = CMY-4 + TEM-1, read-out: MIC): 16 µg/mL | MIC (K. pneumoniae; Klebsiella pneumoniae, 24 h, K. pneumoniae Patient F, VIM-1 + SHV-5, read-out: MIC): > 32 µg/mL | MIC (K. pneumoniae; Klebsiella pneumoniae, 24 h, K. pneumoniae SLK54, ACC-1 + TEM-1, read-out: MIC): 0.06 µg/mL | MIC (K. pneumoniae; Klebsiella pneumoniae, 24 h, K. pneumoniae TN58467, DHA-1 + SHV-2a + TEM-1, read-out: MIC): 0.25 µg/mL | MIC (K. pneumoniae; Klebsiella pneumoniae, ATCC700603, K. pneumoniae ATCC 700603, SHV-18, read-out: MIC): 0.06 µg/mL | MIC (K. pneumoniae; Klebsiella pneumoniae, K. pneumoniae 26, SHV-5, read-out: MIC): ≤ 0.03 µg/mL | MIC (K. pneumoniae; Klebsiella pneumoniae, K. pneumoniae CL5761, KPC-3, read-out: MIC): > 32 µg/mL | MIC (K. pneumoniae; Klebsiella pneumoniae, K. pneumoniae CL5762, KPC-3, read-out: MIC): > 32 µg/mL | MIC (K. pneumoniae; Klebsiella pneumoniae, K. pneumoniae CL5763, KPC-3, read-out: MIC): > 32 µg/mL | MIC (K. pneumoniae; Klebsiella pneumoniae, K. pneumoniae VA8, KPC-3, read-out: MIC): ≤ 0.03 µg/mL | MIC (K. pneumoniae; Klebsiella pneumoniae, K. pneumoniae VAKP, KPC-2, read-out: MIC): 32 µg/mL | MIC (K. pneumoniae; Klebsiella pneumoniae, K. pneumoniae YC, KPC-2, read-out: MIC): 32 µg/mL | MIC (E. coli; 24 h, E. coli 2138, KPC-2 + TEM-1): 8 µg/mL | MIC (E. coli; 24 h, E. coli (no alias), CTX-M-15 + TEM-1 + OXA-1): ≤ 0.03 µg/mL | MIC (E. coli; 24 h, E. coli IND, VEB-1 + CMY-2): 0.06 µg/mL | MIC (E. coli; 24 h, E. coli TN06, CTX-M-2 + TEM-1): 0.06 µg/mL | MIC (E. coli; 24 h, E. coli TN13, CTX-M-14 + CMY-2 + TEM-1): 0.25 µg/mL | MIC (E. coli; 24 h, E. coli Tunisie clone E4, CTX-M-16 + TEM-1): 0.125 µg/mL | MIC (E. coli; E. coli (no alias), Cephalosporinase, read-out: MIC): 0.06 µg/mL (≈ 0.156 µM) | MIC (E. coli; E. coli (no alias), SHV-4): ≤ 0.03 µg/mL | MIC (E. coli; E. coli (no alias), TEM-3): ≤ 0.03 µg/mL | MIC (C. freundii): 0.125 µg/mL | MIC (C. freundii; 24 h, C. freundii (no alias), AmpC + TEM-1, read-out: MIC): 0.06 µg/mL | MIC (C. freundii; C. freundii (no alias, table row r121), AmpC, read-out: MIC): 0.25 µg/mL | MIC (C. freundii; C. freundii (no alias, table row r122), AmpC, read-out: MIC): 0.06 µg/mL | MIC (C. freundii; C. freundii (no alias, table row r125), AmpC, read-out: MIC): 0.06 µg/mL
